Laboratory results: article PMC3486420, “In Vitro and In Vivo Characterizations of Chiglitazar, a Newly Identified PPAR Pan-Agonist” (PPAR Research, 2012)

Legend:
rats = tested on: rats; parameters: method as in earlier work; settings: same length of treatment (6 months) ref 44, 45; cited from earlier work
SMMC-7721 cells = assay: Gene expression by RT-PCR in SMMC-7721 cells; format: cell-based, human; settings: 48 h, 10 μM rosiglitazone, 10 μM chiglitazar; for Expression of LDL receptor (LDLR): 50 μM WY14643, 5 μM 2-Bro
Text: (§1) cDNAs for human retinoid X receptor (hRXR), PPARα, PPARγ, and PPARδ were obtained by reverse transcriptase polymerase chain reaction (RT-PCR) from human liver or adipose tissues. Amplified cDNAs were cloned into pcDNA3.1 expression vector (Invitrogen, Carlsbad, CA, USA). The integrity and fidelity of all constructs made were verified by DNA sequencing. Luciferase reporter plasmids, ACOX promoter for PPARγ and pHD(X3)-luc for PPARα, were kind gifts of Drs. TM McIntyre (University of Utah, USA) and RA Rachubinski (University of Alberta, Canada), respectively. PPRE-luc for PPARδ was constructed based on the previous report by insertion of the annealed oligonucleotides having four copies of the CYP4A6 PPRE (4 × […]) into the upstream of the luciferase coding sequence in pGL3-promoter vector (Promega, Madison, WI, USA). pCMVβGal was purchased from Clontech (Palo Alto, CA, USA). The mouse 3T3-L1 preadipocyte cell line, skeletal muscle C2C12 cell line, and macrophage RAW267.4 cell line and the human osteosarcoma U2OS cell line were obtained from the American Type Culture Collection (ATCC, Rockville, MD, USA). The human hepatoma SMMC-7721 cell line was obtained from the Cell Culture Center of Chinese Academy of Medical Sciences (Beijing, China). Cell lines were cultured in medium of DMEM (3T3-L1, C2C12, and SMMC-7721), RPMI 1640 (RAW267.4), or McCoy's 5A (U2OS), containing 10% fetal bovine serum (FBS), 50 μg/mL streptomycin, and 50 units/mL penicillin at 37°C in a humidified incubator with 5% CO2.
(§2) Total RNA was extracted from cells or tissues with an RNeasy minikit (Qiagen, Valencia, CA, USA). The first-strand cDNA was synthesized using the oligo(dT) primers, followed by using SuperScript II reverse transcriptase (Invitrogen) according to the manufacturer's instructions. The PCR amplifications were performed in 10 μL of reaction mixture volume containing 0.8 μL of cDNA, 10 mM Tris-HCl (pH 8.3), 50 mM KCl, 1.5 mM MgCl2, 0.1% Triton X-100, 0.2 mM deoxynucleotide triphosphates, 0.4 μM primers, and 0.25 U of Taq polymerase (TaKaRa Biotechnology Co., Ltd, China). Taq DNA polymerase was added to each tube after a treatment of 2 min at 94°C. This was followed by 22–30 cycles of denaturation (23 s at 94°C), annealing (20 s at 55°C), extension (30 s at 72°C), and a final extension step of 2 min. PCR products were analyzed by electrophoresis on a 1.5% agarose gel stained with ethidium bromide.
(§3) Figure 1 In vitro regulation of gene expression by chiglitazar. (a) Endogenous expression of individual PPAR subtypes in cell lines. […]. The expression change of referred genes induced by different compounds was normalized against internal control (36B4 or GAPDH) and then compared with vehicle control treatment. The data shown are averaged from 3 independent experiments.

3T3-L1 cells = assay: Gene expression by RT-PCR in 3T3-L1 cells; format: cell-based, mouse; settings: 48 h, 10 μM rosiglitazone, 10 μM chiglitazar, vs vehicle
Text: as §1, with “The human hepatoma SMMC-7721 cell line was obtained from the Cell Culture Center of Chinese Academy of Medical Sciences (Beijing, China). Cell lines were cultured in medium of DMEM (3T3-L1, C2C12, and SMMC-7721), RPMI 1640 (RAW267.4), or McCoy's 5A (U2OS), containing 10% fetal bovine serum (FBS), 50 μg/mL streptomycin, and 50 units/mL penicillin at 37°C in a humidified incubator with 5% CO2.” left out
(§4) Total RNA was extracted from cells or tissues with an RNeasy minikit (Qiagen, Valencia, CA, USA). […] PCR products were analyzed by electrophoresis on a 1.5% agarose gel stained with ethidium bromide. […]

KKAy mice = assay: Gene expression by RT-PCR in tissues of treated KKAy mice; format: in vivo, mouse; settings: 12 days oral
Protocol: as §2
Male db/db mice (BKS.Cg-m +/+ LEPR^db) in 6-7 weeks were purchased from The Jackson Laboratory (Bar Harbor, ME, USA). Male KKAy and C57BL/6J mice in 8–10 weeks were obtained from the Institute of Animal Science, Chinese Academy of Medical Sciences and Peking Union Medical College (Beijing, China). Animals were randomly sorted into different treatment groups (8–10 per group). […]. Plasma glucose levels were examined at various time points by Accu-Chek Advantage II Glucose Strips (Roche Diagnostics, Basel, Switzerland) and measured by Accu-Chek Advantage (Roche Diagnostics). Animals were sacrificed 24 h after the last dosing and abdominal fat pad, liver, and skeletal muscle from KKAy mice and abdominal fat pad from db/db mice were taken for gene expression analysis.
Figure 3 In vivo regulation of gene expression by chiglitazar. […]. Equal amount of total RNA from each mouse in the same group was mixed and subjected to RT-PCR analysis for the indicated genes. […]. Total RNA was isolated from individual animal tissues and subjected to the RT-PCR analysis independently for the indicated genes.

RAW267.4 cells = assay: Gene expression by RT-PCR in RAW267.4 cells; format: cell-based, mouse; settings: 48 h, 10 μM chiglitazar; for Expression of PPARα and/or PPARδ downstream gene SRA: 50 μM WY14643, 5 μM 2-Bro, compared with rosiglitazone 10 μM
Text: as §1, §2, §3

PPARδ [1] = biological target: T1, PPARδ (Homo sapiens, UniProt Q03181); assay: PPARδ transactivation reporter gene assay in U2OS cells; format: cell-based
T1 construct: expressed in transfected cells; host or cells: SMMC-7721 or U2OS
T1 sequence (Q03181 1-441): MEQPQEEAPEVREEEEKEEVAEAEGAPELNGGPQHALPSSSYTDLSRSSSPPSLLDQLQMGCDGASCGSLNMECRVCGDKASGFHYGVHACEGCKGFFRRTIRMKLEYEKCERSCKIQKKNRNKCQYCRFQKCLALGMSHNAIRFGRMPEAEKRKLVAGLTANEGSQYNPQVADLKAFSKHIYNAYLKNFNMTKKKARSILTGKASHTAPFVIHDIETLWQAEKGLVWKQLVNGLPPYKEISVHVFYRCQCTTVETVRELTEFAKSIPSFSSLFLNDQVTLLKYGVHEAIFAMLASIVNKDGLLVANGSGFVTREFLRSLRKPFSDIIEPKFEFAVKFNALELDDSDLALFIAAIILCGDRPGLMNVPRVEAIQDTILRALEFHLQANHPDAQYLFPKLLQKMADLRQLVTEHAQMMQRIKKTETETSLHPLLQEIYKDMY
T1 sequence (P19793 1-462 partner): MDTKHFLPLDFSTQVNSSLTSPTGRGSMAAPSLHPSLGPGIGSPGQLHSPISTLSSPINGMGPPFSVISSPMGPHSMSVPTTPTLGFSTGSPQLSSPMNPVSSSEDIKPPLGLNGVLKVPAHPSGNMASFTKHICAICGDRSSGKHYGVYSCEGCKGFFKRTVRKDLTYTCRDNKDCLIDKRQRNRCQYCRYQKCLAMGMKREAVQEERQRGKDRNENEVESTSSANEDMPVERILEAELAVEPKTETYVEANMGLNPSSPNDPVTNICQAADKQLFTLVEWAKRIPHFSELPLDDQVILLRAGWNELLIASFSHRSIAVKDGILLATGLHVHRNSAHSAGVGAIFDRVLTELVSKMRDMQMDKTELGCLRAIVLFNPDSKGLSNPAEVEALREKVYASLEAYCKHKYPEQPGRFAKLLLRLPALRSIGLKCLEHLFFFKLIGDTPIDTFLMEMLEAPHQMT

PPARα [2] = biological target: T2, PPARα (Homo sapiens, UniProt Q07869); assay: PPARα transactivation reporter gene assay in SMMC-7721 cells; format: cell-based
T2 sequence (Q07869 1-468): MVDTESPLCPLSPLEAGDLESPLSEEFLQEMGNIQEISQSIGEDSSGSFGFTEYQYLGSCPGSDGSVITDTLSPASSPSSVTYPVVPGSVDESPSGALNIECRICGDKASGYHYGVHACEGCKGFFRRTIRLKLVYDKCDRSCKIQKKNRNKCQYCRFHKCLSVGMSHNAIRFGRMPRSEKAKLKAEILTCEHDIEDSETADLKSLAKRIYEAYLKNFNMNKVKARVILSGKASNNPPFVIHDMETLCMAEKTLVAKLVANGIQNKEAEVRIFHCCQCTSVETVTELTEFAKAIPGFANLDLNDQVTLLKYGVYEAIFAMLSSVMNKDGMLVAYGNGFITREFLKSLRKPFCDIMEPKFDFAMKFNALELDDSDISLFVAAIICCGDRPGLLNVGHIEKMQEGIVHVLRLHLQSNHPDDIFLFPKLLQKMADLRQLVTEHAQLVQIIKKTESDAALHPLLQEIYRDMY
T2 sequence (P19793 1-462 partner): T1 sequence (P19793 1-462 partner)

PPARγ [3] = biological target: T3, PPARγ (Homo sapiens, UniProt P37231); assay: PPARγ transactivation reporter gene assay in U2OS cells; format: cell-based; settings: 24 h treatment, luciferase reporter, hRXR cotransfected, ia: inactive at 10 μM
T3 construct: expressed in transfected cells; host or cells: SMMC-7721 or U2OS
T3 sequence (P37231 1-505): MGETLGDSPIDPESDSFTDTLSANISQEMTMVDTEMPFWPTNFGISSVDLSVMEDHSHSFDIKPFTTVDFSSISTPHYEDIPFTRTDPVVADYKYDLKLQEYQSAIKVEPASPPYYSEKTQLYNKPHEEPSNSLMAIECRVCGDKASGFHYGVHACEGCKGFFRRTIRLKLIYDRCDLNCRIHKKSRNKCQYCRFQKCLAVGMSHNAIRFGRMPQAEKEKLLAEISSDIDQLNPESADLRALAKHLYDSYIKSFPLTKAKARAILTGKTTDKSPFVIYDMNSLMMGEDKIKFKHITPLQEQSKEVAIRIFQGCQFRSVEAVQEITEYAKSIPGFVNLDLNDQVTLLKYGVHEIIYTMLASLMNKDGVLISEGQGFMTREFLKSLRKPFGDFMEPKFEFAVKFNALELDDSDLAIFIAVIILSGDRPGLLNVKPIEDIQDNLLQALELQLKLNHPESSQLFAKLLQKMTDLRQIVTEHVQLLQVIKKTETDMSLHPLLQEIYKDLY
T3 sequence (P19793 1-462 partner): T1 sequence (P19793 1-462 partner)

PPARδ [4] = biological target: T1, PPARδ; assay: PPARδ transactivation reporter gene assay in SMMC-7721 cells; format: cell-based
C2C12 cells = assay: Gene expression by RT-PCR in C2C12 cells; format: cell-based, mouse; settings: 48 h, 10 μM chiglitazar, 50 μM WY14643, 5 μM 2-Bro, compared with rosiglitazone 10 μM
Text: as §1
as §4, with “USA). The first-strand cDNA was synthesized using the oligo(dT) primers, followed by using SuperScript II reverse transcriptase (Invitrogen) according to the manufacturer's instructions.” for “USA).”

PPARγ [5] = biological target: T3, PPARγ; assay: PPARγ transactivation reporter gene assay in SMMC-7721 cells; format: cell-based
PPARα [6] = biological target: T2, PPARα; assay: PPARα transactivation reporter gene assay in U2OS cells; format: cell-based
[7] = chiglitazar 20 mg kg^−1, rosiglitazone 5 mg kg^−1
[8] = 24 h treatment, luciferase reporter, hRXR cotransfected, ia: inactive at 10 μM
[9] = max response compared with WY at 50 μM

CCc1ccc(CCOc2ccc(CC3SC(=O)NC3=O)cc2)nc1 (centres unmarked) [Pio, pioglitazone]
Dose observed to induce heart weight increase (rats): 4 mg/kg

CN(CCOc1ccc(CC2SC(=O)NC2=O)cc1)c1ccccn1 (centres unmarked) [Ros, rosiglitazone, reference compound]
Dose observed to induce heart weight increase (rats): 5 mg/kg | Expression of PPARγ downstream genes AOX, LIPC and HSL (SMMC-7721 cells; vs vehicle): upregulated | Expression of LDL receptor (LDLR) (SMMC-7721 cells): downregulated | Expression of PPARγ downstream genes SREBP1 and adiponectin (3T3-L1 cells): upregulated | Expression of ACADL, HSL, GLUT4 and PPARγ in liver and skeletal muscle (KKAy mice; [7]): not affected | Expression of genes involved in PPARγ-mediated insulin sensitization in adipose tissue (KKAy mice; [7]): almost identically up-regulated | Expression of Adiponectin and CD36 in liver and skeletal muscle (KKAy mice; rosiglitazone 5 mg kg^−1 vs chiglitazar 20 mg kg^−1): more upregulated | Expression of PPARγ downstream gene CD36 (RAW267.4 cells; 10 μM rosiglitazone, vs vehicle): upregulated

CCCCCCCCCCCCCCC(Br)C(=O)O (centres unmarked) [2-Bro, 2-bromohexadecanoic acid, reference compound]
EC50 (PPARδ [1]): 9.2 ± 0.8 µM | PPARδ % Max (PPARδ [1]; U2OS cells, max response compared with 2-Bro at 10 μM): 100% | PPARα EC50 (PPARα [2]; [8]): ia^2 | PPARγ EC50 (PPARγ [3]): ia | Expression of LDL receptor (LDLR) (SMMC-7721 cells): significantly upregulated | EC50 (PPARδ [4]): 5.1 ± 0.9 µM | PPARδ % Max (PPARδ [4]; SMMC-7721 cells, max response compared with 2-Bro at 10 μM): 100% | Expression of PPARα and/or PPARδ downstream genes CPT-1a and CPT-1b (C2C12 cells): more significantly upregulated | EC50 (PPARγ [5]): 5.5 ± 1.7 µM | PPARγ % Max (PPARγ [5]; SMMC-7721 cells, max response compared with Ros at 1 μM): 14% | Expression of PPARα and/or PPARδ downstream gene SRA (RAW267.4 cells): more significantly upregulated | PPARα EC50 (PPARα [6]; [8]): ia

Cc1cccc(Nc2cc(Cl)nc(SCC(=O)O)n2)c1C [WY, WY14643]
PPARα % Max (PPARα [2]; [9]): 100% | Expression of LDL receptor (LDLR) (SMMC-7721 cells): downregulated | Expression of PPARα and/or PPARδ downstream genes CPT-1a and CPT-1b (C2C12 cells): more significantly upregulated | Expression of PPARα and/or PPARδ downstream gene SRA (RAW267.4 cells): more significantly upregulated | PPARα % Max (PPARα [6]; [9]): 100%
